The record followed here is paper PMC12843137, “Fine-Tuning Side Chain Substitutions: Impacts on the Lipophilicity–Solubility–Permeability Interplay in Macrocyclic Peptides” (Marine Drugs, 2025).

Converted amounts (≈) assume the structure as drawn. Like-named read-outs stand apart in the source and are kept apart here.

The nature of data set [1]: Caco-2 cell permeability study. It counts as in vitro ADME. The following applies: human; for efflux ratio at 2 h, 5 µM: Caco-2, pH 7.4; for recovery at 2 h, 5 μM: Caco-2, pH 7.4, Caco-2, 5 μM; for Papp A→B at 2 h, 5 µM / Papp B→A at 2 h, 5 µM: pH 7.4, Caco-2, 5 μM; for Papp A→B at 2 h, 5 µM: apical to basolateral; for Papp B→A at 2 h, 5 µM: basolateral to apical. From the text:
One of the physicochemical quantities that mirrors the interaction of a compound with the cell membrane is permeability. Traditionally, measuring permeability with the PAMPA model provides estimates of passive permeability across a model membrane. […] Therefore, we measure the cell permeability of the six compounds using Caco-2 cells, so that the apical to basolateral (A to B) and basolateral to apical (B to A) permeabilities, and thereby the efflux ratio, can be determined. Three commercial drugs (Table 2) are used as standard compounds to establish and validate our in-house assay.
For Caco-2 cells (originally obtained from the American Type Culture Collection; ATCC, Manassas, VA, USA), 50 μL and […] of cell culture medium are added to each well of the Transwell insert and reservoir, respectively. And then the HTS transwell plates are incubated at 37 °C, 5% CO2 for 1 h before cell seeding. Caco-2 cells are diluted to 6.86 × 10^5 cells/mL with culture medium and 50 μL of cell suspension is dispensed into the filter well of the 96-well HTS Transwell plate. Cells are cultivated for 14–18 days in a cell culture incubator at 37 °C, 5% CO2, 95% relative humidity. Cell culture medium is replaced every other day, beginning no later than 24 h after initial plating. Stock solutions of the test compounds are prepared at a concentration of 10 mM in DMSO. […] Detailed assay procedures are provided in the SI. […]
dilution factor is changed according to the log D value and the LC-MS signal response. The samples are evaluated by LC-MS/MS analysis. All experiments are performed in duplicates.
5. Caco-2 Cell Permeability Assay
The Caco-2 plate is removed from the incubator and washed twice with pre-warmed HBSS (10 mM HEPES, pH 7.4), and then incubated at 37 °C for 30 minutes. The stock solutions of control compounds and test compounds are diluted in DMSO to get 1 mM solutions and then diluted with HBSS (10 mM HEPES, pH 7.4) get 5 μM working solutions. The final concentration of DMSO in the incubation system is 0.5%. To determine the rate of drug transport in the apical to basolateral direction. 125 μL of 5 μM working solution of control compounds and test compounds are added to the Transwell insert (apical compartment), and transfer 50 μL sample (D0 sample) immediately from the apical compartment to a new 96-well plate. Fill the wells in the receiver plate (basolateral compartment) with 235 μL of HBSS (10 mM HEPES, pH 7.4). To determine the rate of drug transport in the basolateral to apical direction. 285 μL of 5 μM working solution of control compounds and test compounds are to the receiver plate wells (basolateral compartment), and transfer 50 μL sample (D0 sample) immediately from the basolateral compartment to a new 96-well plate.
Fill the wells in the Transwell insert (apical compartment) with 75 μL of HBSS (10 mM HEPES, pH 7.4).
The assay is performed in duplicate. The plates are incubated at 37 °C for 2 h. At the end of the incubation, 50 μL samples from donor sides (apical compartment for Ap→Bl flux, and basolateral compartment for Bl→Ap) and receiver sides (basolateral compartment for Ap→Bl flux, and apical compartment for Bl→Ap) are transferred to wells of a new 96-well plate, followed by the addition of 4 volume of cold acetonitrile containing appropriate internal standards (IS). Samples are Vortexed for 5 minutes and then centrifuged at 3,220 g for 30 minutes. An aliquot of 100 µL of the supernatant is mixed with an appropriate volume of ultra-pure water before LC-MS/MS analysis (see SI Bioanalytical Method for Caco-2 Cell Permeability […]
Papp (A to B) is greater than the Papp (A to B) of minoxidil it is assigned as high permeability. If the Papp (A to B) is […]
Background: Passage across Caco-2 layers is used to estimate intestinal permeability.

Data set [2] is described as follows: log D7.4 by shake-flask method (1-octanol/PBS). The format is physicochemical. On the procedure:
(§1) One explanation for the high IC50 values (i.e., low activity) of the new compounds is their potential poor solubility in aqueous solution or inadequate lipophilicity. To investigate this hypothesis, we determined kinetic solubility in […] phosphate buffer at pH 7.4 (Table 1). […] The remaining two compounds, BE and 29, show low solubilities (<0.1 μM). […] Additionally, since approximately 95% of drugs are ionizable, assessment of lipophilicity at pH 7.4 (log D7.4) is essential during the initial phases of drug discovery. In this study, we employ the shake-flask method to evaluate this property. […] Because lipophilicity directly reflects compound–membrane interaction, the activity of these compounds against PANC-1 cells likely stems from their interaction with the cell membrane.
The basic solution is titrated with the acidic solution to achieve pH 7.4, with the pH verified and adjusted to 7.4 ± 0.1 on the experiment day. Saturated 1-octanol and PBS (pH 7.4) are also prepared. The stock solutions of test compounds and control compound progesterone are prepared in DMSO at a concentration of 10 mM (0.666 mM: compound 39). The detailed procedure for log D determinations can be found in the SI. […]
4. Procedure for log D determinations […]
µL of phosphate buffer saturated 1-octanol to get a concentration of 300 µM working solution. 20 µL of 300 µM compound solution is placed in order into their proper 96-well rack followed by the addition of 980 µL of 1-octanol saturated phosphate buffer. One stir stick is added to each vial and vials are sealed molded PTFE/Silicone plugs. Then the log D plate is transferred to the Eppendorf Thermomixer Comfort plate shaker and shaken at 25°C at 1,100 RPM for 1 h. The assay is performed in duplicate. After completion of 1 h, the stir sticks are removed using a big magnet. The samples are then centrifuged at 25°C at 20,000 g for 20 minutes to separate the phases, and syringe is used to remove the lower (buffer) phases to the empty tubes. Then the buffer phase is diluted with the same volume of acetonitrile/ultrapure water (50%/50%) for LC-MS/MS analysis. 300 µM working solution is diluted with acetonitrile/ultrapure water (50%/50%) to achieve a concentration of 3 µM. Then the 3 µM solution is diluted to 0.3 µM to get the total samples by adding 4 volumes of acetonitrile/ultrapure water (50%/50%) and 5 volumes of 1-octanol saturated Phosphate Buffer for LC-MS/MS analysis. […]
test compounds and control compound is placed in order into their 2.0 mL deep well plate, 500 µL of […]
followed by the addition of 500 µL of saturated PBS (pH 7.4). Seal the plate using a Silicone sealing mat.
Then the log D plate is transferred to the Eppendorf Thermomixer Comfort plate shaker and shaken at 25°C at 2,000 RPM for 2 h. After completion of 2 h, the samples are then centrifuged at 25°C at 3,220 g for 30 minutes to separate the phases, and pipette are used to remove the upper (1-octanol) and lower (buffer) phases to the empty tubes, respectively. Aliquots of 50 µL are taken from upper phases followed by addition of 450 µL of acetonitrile (containing internal standards (IS, 200 nM labetalol, 100 nM tolbutamide and 100 nM ketoprofen)). Mix with a pipette, and then aliquots of 50 µL are taken from the diluent followed by addition of 450 µL of acetonitrile (containing internal standards (IS, 200 nM labetalol, 100 nM tolbutamide and 100 nM ketoprofen)). […]

A short description of data set [3]: Kinetic solubility in PBS pH 7.4. The format is physicochemical. To be noted: sodium phosphate buffer (PBS), 25 °C, pH 7.4, aqueous buffer, kinetic from dmso stock, PBS pH 7.4, 25 °C. On the procedure: as §1
Solubility is determined in 100 mM sodium phosphate buffer (PBS), pH 7.4. The stock solutions of test compound and control compound progesterone are prepared in DMSO at a concentration of 10 mM. 30 µL of working solutions of each sample is placed in order into their proper 96-well rack. 970 µL of PBS pH 7.4 is added into each vial of the cap-less Solubility Sample plate. The assay is performed in duplicate. Add one stir stick to each vial and seal using a molded PTFE/Silicone plug. Then the Solubility Sample plate is transferred to the Eppendorf Thermomixer Comfort plate shaker and shaken at 25 °C at 1100 RPM for 2 h. After completion of the 2 h, plugs are removed and the stir sticks are removed using a big magnet, the samples from the Solubility Sample plate are transferred into the filter plate. Using the Vacuum Manifold, all the samples are filtered. Aliquot of 5 µL is taken from the filtrate, followed by addition of 5 µL DMSO and 490 µL of a mixture of H2O and acetonitrile (1:1 in v/v). 200 μL of diluent is transferred to a new 96-well plate for LC-MS/MS analysis (see SI Bioanalytical Method for Solubility Measurement). The dilution factor is changed according to the solubility values and the LC-MS signal response.
MRM) / -4500 v (negative MRM). […]
13. Bioanalytical Method for Solubility Measurement
MS analysis: Triple Quad TM 5500 instrument from AB Inc (Canada) with an ESI interface
Injection volume: 1 μL, 3 μL, 5 μL or 10 μL
Column: ACQUITY UPLC BEH C18 (2.1 × 50 mmI.D. S-1.7 μm, 12 nm) Column
Mobile phase: 0.1% Ammonium hydroxide solution in water (A) and 0.1% Ammonium hydroxide solution
Column: XSelect Hss T3 2.5μm (2.1 × 50 mm) Column XP
Mobile phase: 0.1% formic acid in water (A) and 0.1% formic acid in acetonitrile (B)

Setting [4] is: read-out: Mean % Solution Recovery A to B.
[5] abbreviates: read-out: Mean % Solution Recovery B to A.

Turning to `Nc1cc(N2CCCCC2)nc(N)[n+]1[O-]` [Minoxidil, reference compound], in data set [1], the efflux ratio at 2 h, 5 µM is 1.08; the Papp A→B at 2 h, 5 µM turned out to be 9.52 ×10⁻⁶ cm/s; the Papp B→A at 2 h, 5 µM was 10.3 ×10⁻⁶ cm/s. Also, the recovery at 2 h, 5 μM in data set [1] (setting [4]) was 104%. Further, in data set [1] (setting [5]), the recovery at 2 h, 5 μM is 106%.

`CC(=O)[C@H]1CC[C@H]2[C@@H]3CCC4=CC(=O)CC[C@]4(C)[C@H]3CC[C@]12C` [Progesterone, reference compound]: the logD in data set [2] (1-octanol/PBS, pH 7.4, 1-Octanol/PBS pH 7.4, shake-flask) is 3.85. For the same compound, the solubility at 2 h in data set [3] turned out to be 13.1 µM (≈ 4.13 µg/mL).

For the compound `C[C@H]1O[C@@H](O[C@H]2[C@@H](O)C[C@H](O[C@H]3[C@@H](O)C[C@H](O[C@H]4CC[C@@]5(C)[C@H](CC[C@@H]6[C@@H]5C[C@@H](O)[C@]5(C)[C@@H](C7=CC(=O)OC7)CC[C@]65O)C4)O[C@@H]3C)O[C@@H]2C)C[C@H](O)[C@@H]1O` [Digoxin, reference compound], in data set [1], the efflux ratio at 2 h, 5 µM stood at 25.9; the Papp A→B at 2 h, 5 µM stood at 0.77 ×10⁻⁶ cm/s; the Papp B→A at 2 h, 5 µM was 20 ×10⁻⁶ cm/s. Besides, the recovery at 2 h, 5 μM in data set [1] (setting [4]) was 83.2%. Moreover, in data set [1] (setting [5]), the recovery at 2 h, 5 μM amounted to 95%.

With `C[C@@H]1C(=O)[C@](C)(O)C(=O)NCC(=O)N[C@H](CN2CCN(C)CC2)/C=C/C(=O)N(C)CC(=O)O[C@H]1CCCCCc1cn(CCCCCCCCCC(=O)O)nn1` [Compound 39], the “log D7.4” value in data set [2] (1-Octanol/PBS pH 7.4, shake-flask) is on record as −0.30. In data set [1], the efflux ratio at 2 h, 5 µM is 1.26; the Papp A→B at 2 h, 5 µM turned out to be 0.0836 ×10⁻⁶ cm/s; the Papp B→A at 2 h, 5 µM was found to be 0.105 ×10⁻⁶ cm/s. The recovery at 2 h, 5 μM in data set [1] (setting [4]) was 99.5%. Also, the recovery at 2 h, 5 μM in data set [1] (setting [5]) came out at 48.6%.

As a reminder, the efflux ratio is the permeability from basolateral to apical divided by that in the opposite direction, in the common usage. As a reminder, the Papp A→B is how fast a substance crosses the layer from the apical side. A lower Papp A→B goes with slow passage. A word on the Papp B→A: it is how fast a substance crosses the layer from the basolateral side. As usually defined, the logD is the decadic logarithm of the distribution of all forms, ionised or not, between an organic phase and buffer at a given pH. A low value points to a more hydrophilic compound. For orientation: solubility means the dissolved amount per volume that the medium holds. Read a high solubility as much dissolved substance.
